Source: the supplement of paper PMC10307832

Assays:
Experiment in all cases: relative viability (nuclei count vs DMSO), 5 days (fraction); higher = more cells survive
[1] = tested on: NCI-H2126
In short: (§1)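 Each reported value is a median over duplicate plates. It expresses relative viability: treated-well nuclei count divided by vehicle-well nuclei count. Lung cancer cell lines in 1536-well plates were dosed by pin tool a day after seeding, alone with one drug or with a fixed anchor-drug dose plus five library-drug doses (not always all listed) in √10 steps, and nuclei were counted after 5 days.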

[2] = tested on: LCLC-103H
In short: as §1

[3] = tested on: NCI-H1993
In short: as §1

[4] = tested on: EMC-BAC-2
In short: as §1

[5] = tested on: NCI-H3122
In short: as §1

[6] = tested on: NCI-H23
In short: as §1

[7] = tested on: NCI-H596
In short: as §1

[8] = tested on: NCI-H650
In short: as §1

[9] = tested on: LOU-NH91
In short: as §1

[10] = tested on: NCI-H647
In short: as §1

[11] = tested on: HARA
In short: as §1

[12] = tested on: NCI-H838
In short: as §1

[13] = tested on: 201T
In short: as §1

[14] = tested on: NCI-H2087
In short: as §1

[15] = tested on: NCI-H441
In short: as §1

[16] = tested on: NCI-H2347
In short: as §1

[17] = tested on: NCI-H727
In short: as §1

[18] = tested on: NCI-H1395
In short: as §1

[19] = tested on: NCI-H522
In short: as §1

[20] = tested on: NCI-H2023
In short: as §1

[21] = tested on: BEN
In short: as §1

[22] = tested on: HCC-44
In short: as §1

CC(=O)O[C@@]12CO[C@@H]1C[C@H](O)[C@@]1(C)C(=O)[C@H](O)C3=C(C)[C@@H](OC(=O)[C@H](O)[C@@H](NC(=O)OC(C)(C)C)c4ccccc4)C[C@@](O)([C@@H](OC(=O)c4ccccc4)[C@H]21)C3(C)C [Docetaxel] + CCNC(=O)c1noc(-c2cc(C(C)C)c(O)cc2O)c1-c1ccc(CN2CCOCC2)cc1 [Luminespib] (partner 0.01 µM)
relative viability ([1]; first compound 0.0002 µM): 0.914
relative viability ([1]; first compound 0.000632 µM): 0.739
relative viability ([1]; first compound 0.002 µM): 0.591
relative viability ([1]; first compound 0.006325 µM): 0.403
relative viability ([1]; first compound 0.02 µM): 0.255
relative viability ([2]; first compound 0.0002 µM): 0.885
relative viability ([2]; first compound 0.000632 µM): 0.835
relative viability ([2]; first compound 0.002 µM): 0.498
relative viability ([2]; first compound 0.006325 µM): 0.443
relative viability ([2]; first compound 0.02 µM): 0.218
relative viability ([3]; first compound 0.0002 µM): 0.771
relative viability ([3]; first compound 0.000632 µM): 0.783
relative viability ([3]; first compound 0.002 µM): 0.616
relative viability ([3]; first compound 0.006325 µM): 0.481
relative viability ([3]; first compound 0.02 µM): 0.446
relative viability ([4]; first compound 0.0002 µM): 1.15
relative viability ([4]; first compound 0.000632 µM): 1.08
relative viability ([4]; first compound 0.002 µM): 0.385
relative viability ([4]; first compound 0.006325 µM): 0.368
relative viability ([4]; first compound 0.02 µM): 0.238
relative viability ([5]; first compound 0.0002 µM): 0.088
relative viability ([5]; first compound 0.000632 µM): 0.101
relative viability ([5]; first compound 0.002 µM): 0.104
relative viability ([5]; first compound 0.006325 µM): 0.0883
relative viability ([5]; first compound 0.02 µM): 0.115
relative viability ([6]; first compound 0.0002 µM): 0.208
relative viability ([6]; first compound 0.000632 µM): 0.224
relative viability ([6]; first compound 0.002 µM): 0.233
relative viability ([6]; first compound 0.006325 µM): 0.224
relative viability ([6]; first compound 0.02 µM): 0.18
relative viability ([7]; first compound 0.0002 µM): 0.872
relative viability ([7]; first compound 0.000632 µM): 0.58
relative viability ([7]; first compound 0.002 µM): 0.713
relative viability ([7]; first compound 0.006325 µM): 0.36
relative viability ([7]; first compound 0.02 µM): 0.267
relative viability ([8]; first compound 0.0002 µM): 0.796
relative viability ([8]; first compound 0.000632 µM): 0.519
relative viability ([8]; first compound 0.002 µM): 0.212
relative viability ([8]; first compound 0.006325 µM): 0.18
relative viability ([8]; first compound 0.02 µM): 0.111
relative viability ([9]; first compound 0.0002 µM): 0.299
relative viability ([9]; first compound 0.000632 µM): 0.384
relative viability ([9]; first compound 0.002 µM): 0.299
relative viability ([9]; first compound 0.006325 µM): 0.266
relative viability ([9]; first compound 0.02 µM): 0.212
relative viability ([10]; first compound 0.0002 µM): 0.112
relative viability ([10]; first compound 0.000632 µM): 0.126
relative viability ([10]; first compound 0.002 µM): 0.147
relative viability ([10]; first compound 0.006325 µM): 0.12
relative viability ([10]; first compound 0.02 µM): 0.0798
relative viability ([11]; first compound 0.0002 µM): 0.46
relative viability ([11]; first compound 0.000632 µM): 0.124
relative viability ([11]; first compound 0.002 µM): 0.0629
relative viability ([11]; first compound 0.006325 µM): 0.0587
relative viability ([11]; first compound 0.02 µM): 0.0441
relative viability ([12]; first compound 0.0002 µM): 0.389
relative viability ([12]; first compound 0.000632 µM): 0.3
relative viability ([12]; first compound 0.002 µM): 0.138
relative viability ([12]; first compound 0.006325 µM): 0.147
relative viability ([12]; first compound 0.02 µM): 0.112
relative viability ([13]; first compound 0.0002 µM): 1.08
relative viability ([13]; first compound 0.000632 µM): 0.907
relative viability ([13]; first compound 0.002 µM): 0.8
relative viability ([13]; first compound 0.006325 µM): 0.485
relative viability ([13]; first compound 0.02 µM): 0.302
relative viability ([14]; first compound 0.0002 µM): 0.166
relative viability ([14]; first compound 0.000632 µM): 0.189
relative viability ([14]; first compound 0.002 µM): 0.147
relative viability ([14]; first compound 0.006325 µM): 0.168
relative viability ([14]; first compound 0.02 µM): 0.124
relative viability ([15]; first compound 0.0002 µM): 0.294
relative viability ([15]; first compound 0.000632 µM): 0.288
relative viability ([15]; first compound 0.002 µM): 0.3
relative viability ([15]; first compound 0.006325 µM): 0.257
relative viability ([15]; first compound 0.02 µM): 0.253
relative viability ([16]; first compound 0.0002 µM): 0.513
relative viability ([16]; first compound 0.000632 µM): 0.631
relative viability ([16]; first compound 0.002 µM): 0.39
relative viability ([16]; first compound 0.006325 µM): 0.311
relative viability ([16]; first compound 0.02 µM): 0.34
relative viability ([17]; first compound 0.0002 µM): 0.753
relative viability ([17]; first compound 0.000632 µM): 0.419
relative viability ([17]; first compound 0.002 µM): 0.351
relative viability ([17]; first compound 0.006325 µM): 0.353
relative viability ([17]; first compound 0.02 µM): 0.308
relative viability ([18]; first compound 0.0002 µM): 0.699
relative viability ([18]; first compound 0.000632 µM): 0.771
relative viability ([18]; first compound 0.002 µM): 0.496
relative viability ([18]; first compound 0.006325 µM): 0.391
relative viability ([18]; first compound 0.02 µM): 0.286
relative viability ([19]; first compound 0.0002 µM): 1.19
relative viability ([19]; first compound 0.000632 µM): 1.02
relative viability ([19]; first compound 0.002 µM): 0.703
relative viability ([19]; first compound 0.006325 µM): 0.419
relative viability ([19]; first compound 0.02 µM): 0.357
relative viability ([20]; first compound 0.0002 µM): 0.682
relative viability ([20]; first compound 0.000632 µM): 0.346
relative viability ([20]; first compound 0.002 µM): 0.113
relative viability ([20]; first compound 0.006325 µM): 0.105
relative viability ([20]; first compound 0.02 µM): 0.0645
relative viability ([21]; first compound 0.0002 µM): 0.0838
relative viability ([21]; first compound 0.000632 µM): 0.377
relative viability ([21]; first compound 0.002 µM): 0.373
relative viability ([21]; first compound 0.006325 µM): 0.172
relative viability ([21]; first compound 0.02 µM): 0.116
relative viability ([22]; first compound 0.0002 µM): 0.986
relative viability ([22]; first compound 0.000632 µM): 0.901
relative viability ([22]; first compound 0.002 µM): 0.35
relative viability ([22]; first compound 0.006325 µM): 0.289
relative viability ([22]; first compound 0.02 µM): 0.171
